{
  "source": "patent US8614193",
  "key": {"[1]": {"details": "disulfide bond, 15-membered ring, I2 (10 eq), CH2Cl2/MeOH 9:1, 0.43 mM"}},
  "note": "Where “and” joins values, the source holds several entries; their conditions need not be identical. Equal entries are not always repeated. Where two headings read alike, the source gives them in different places.",
  "data": [
    {"molecule": "CC(C)[C@H]1NC(=O)[C@@H](CSC(c2ccccc2)(c2ccccc2)c2ccccc2)NC(=O)C(C)(C)NC(=O)CC(/C=C/CCSC(c2ccccc2)(c2ccccc2)c2ccccc2)OC(=O)CNC1=O", "note": "(stereo in doubt)", "values": [
      {"measurement": "ring closure, isolated yield", "setting": "from (3S,4E)-3-hydroxy-7-(tritylthio)hept-4-enoyl-Aib-dCys(Trt)-dVal-Gly-OH, ester bond, 16-membered ring, MNBA/DMAP, CH2Cl2/THF, 1.0 mM, 2 steps", "result": 47, "unit": "%"}
    ]},
    {"molecule": "O=C1C[C@@H](/C=C/CCSC(c2ccccc2)(c2ccccc2)c2ccccc2)OC(=O)CNC(=O)C2(CC2)NC(=O)[C@@H](CSC(c2ccccc2)(c2ccccc2)c2ccccc2)NC(=O)[C@@H](Cc2cccc(Cl)c2)N1", "values": [
      {"measurement": "ring closure, isolated yield", "setting": "from (3S,4E)-3-hydroxy-7-(tritylthio)hept-4-enoyl-dPhe(3-Cl)-dCys(Trt)-Acc(1-aminocyclopropanecarbonyl)-Gly-OH, ester bond, 16-membered ring, MNBA/DMAP, CH2Cl2, 1.06 mM", "result": 40, "unit": "%"}
    ]},
    {"molecule": "(E)-(1S,10S,21R)-7,7-Cyclopropyl-21-pyridin-3-ylmethyl-2-oxa-12,13-dithia-5,8,20,23-tetraaza-bicyclo[8.7.6]tricos-16-ene-3,6,9,19,22-pentaone", "values": [
      {"measurement": "ring closure, isolated yield", "setting": "disulfide bond, 15-membered ring, I2 (10 eq), CH2Cl2/MeOH 9:1, 0.35 mM", "result": 24, "unit": "%"}
    ]},
    {"molecule": "O=C1C[C@@H](/C=C/CCSC(c2ccccc2)(c2ccccc2)c2ccccc2)OC(=O)CNC(=O)C2(CC2)NC(=O)[C@@H](CSC(c2ccccc2)(c2ccccc2)c2ccccc2)NC(=O)CN1", "values": [
      {"measurement": "ring closure, isolated yield", "setting": "from (3S,4E)-3-hydroxy-7-(tritylthio)hept-4-enoyl-Gly-dCys(Trt)-Ac3c-Gly-OH, ester bond, 16-membered ring, MNBA/DMAP, CH2Cl2, 0.85 mM", "result": 45, "unit": "%"}
    ]},
    {"molecule": "3-((E)-(1S,10S,21R)-7,7-Cyclopropyl-3,6,9,19,22-pentaoxo-2-oxa-12,13-dithia-5,8,20,23-tetraaza-bicyclo[8.7.6]tricos-16-en-21-yl)-propionic acid tert-butyl ester", "values": [
      {"measurement": "ring closure, isolated yield", "setting": "disulfide bond, 15-membered ring, I2, CH2Cl2/MeOH 9:1, 0.4 mM, 25.0 °C", "result": 65, "unit": "%"}
    ]},
    {"molecule": "(E)-(1S,10S,21R)-21-(3-Chloro-benzyl)-7,7-cyclopropyl-2-oxa-12,13-dithia-5,8,20,23-tetraaza-bicyclo[8.7.6]tricos-16-ene-3,6,9,19,22-pentaone", "values": [
      {"measurement": "ring closure, isolated yield", "setting": "disulfide bond, 15-membered ring, I2, CH2Cl2/MeOH 9:1, 0.19 mM", "result": 32, "unit": "%"}
    ]},
    {"molecule": "(E)-(1S,10S)-7-Isopropyl-21,21-cyclopropyl-2-oxa-12,13-dithia-5,8,20,23-tetraaza-bicyclo[8.7.6]tricos-16-ene-3,6,9,19,22-pentaone", "values": [
      {"measurement": "ring closure, isolated yield", "setting": "disulfide bond, 15-membered ring, I2, CH2Cl2/MeOH 9:1", "result": 76, "unit": "%"}
    ]},
    {"molecule": "O=C1CC(/C=C/CCSC(c2ccccc2)(c2ccccc2)c2ccccc2)OC(=O)CNC(=O)C2(CC2)NC(=O)[C@@H](CSC(c2ccccc2)(c2ccccc2)c2ccccc2)NC(=O)[C@@H](Cc2ccncc2)N1", "note": "(stereo in doubt)", "values": [
      {"measurement": "ring closure, isolated yield", "setting": "from (3S,4E)-3-hydroxy-7-(tritylthio)hept-4-enoyl-d4Pal-dCys(Trt)-Acc(1-aminocyclopropanecarbonyl)-Gly-OH, ester bond, 16-membered ring, MNBA/DMAP, CH2Cl2/THF, 0.97 mM, 2 steps", "result": 54, "unit": "%"}
    ]},
    {"molecule": "(E)-(1S,10S)-7,7-Cyclopropyl-2-oxa-12,13-dithia-5,8,20,23-tetraaza-bicyclo[8.7.6]tricos-16-ene-3,6,9,19,22-pentaone", "values": [
      {"measurement": "ring closure, isolated yield", "setting": "disulfide bond, 15-membered ring, I2, CH2Cl2/MeOH 9:1, 0.2 mM", "result": 53, "unit": "%"}
    ]},
    {"molecule": "O=C1C[C@@H](/C=C/CCSC(c2ccccc2)(c2ccccc2)c2ccccc2)OC(=O)CNC(=O)C2(CC2)NC(=O)[C@@H](CSC(c2ccccc2)(c2ccccc2)c2ccccc2)NC(=O)[C@@H](Cc2ccccc2)N1", "values": [
      {"measurement": "ring closure, isolated yield", "setting": "from (3S,4E)-3-hydroxy-7-(tritylthio)hept-4-enoyl-dPhe-dCys(Trt)-Acc(1-aminocyclopropanecarbonyl)-Gly-OH, ester bond, 16-membered ring, MNBA/DMAP, CH2Cl2/THF, 0.83 mM, 2 steps", "result": 58, "unit": "%"}
    ]},
    {"molecule": "CC(C)(C)OC(=O)CC[C@H]1NC(=O)C[C@@H](/C=C/CCSC(c2ccccc2)(c2ccccc2)c2ccccc2)OC(=O)CNC(=O)C2(CC2)NC(=O)[C@@H](CSC(c2ccccc2)(c2ccccc2)c2ccccc2)NC1=O", "values": [
      {"measurement": "ring closure, isolated yield", "setting": "from (E)-(S)-3-hydroxy-7-tritylsulfanyl-hept-4-enoyl-dGlu(OtBu)-dCys(Trt)-Acc-Gly-OH, ester bond, 16-membered ring, MNBA/DMAP, CH2Cl2/THF, 0.85 mM, 25.0 °C, 2 steps", "result": 29, "unit": "%"}
    ]},
    {"molecule": "CC(C)(C)OC(=O)CC[C@H]1NC(=O)CC(/C=C/CCSC(c2ccccc2)(c2ccccc2)c2ccccc2)OC(=O)CNC(=O)C2(CCC2)NC(=O)C(CSC(c2ccccc2)(c2ccccc2)c2ccccc2)NC1=O", "note": "(stereo in doubt)", "values": [
      {"measurement": "ring closure, isolated yield", "setting": "from (3S,4E)-3-hydroxy-7-(tritylthio)hept-4-enoyl-dGlu(tBu)-dCys(Trt)-Ac4c-Gly-OH, ester bond, 16-membered ring, MNBA/DMAP, CH2Cl2/THF, 1.13 mM, 2 steps", "result": 51, "unit": "%"}
    ]},
    {"molecule": "CC(C)[C@@H]1NC(=O)[C@@H](CSC(c2ccccc2)(c2ccccc2)c2ccccc2)NC(=O)C2(CC2)NC(=O)C[C@@H](/C=C/CCSC(c2ccccc2)(c2ccccc2)c2ccccc2)OC(=O)CNC1=O", "values": [
      {"measurement": "ring closure, isolated yield", "setting": "from (3S,4E)-3-hydroxy-7-(tritylthio)hept-4-enoyl-Ac3c-dCys(Trt)-Val-Gly-OH?, ester bond, 16-membered ring, MNBA/DMAP, CH2Cl2/THF, 0.77 mM, 2 steps", "result": 50, "unit": "%"}
    ]},
    {"molecule": "3-((E)-(1S,9S,20R)-5-Hydroxy-6,6-cyclopropyl-3,8,18,21-tetraoxo-2-oxa-11,12-dithia-7,19,22-triaza-bicyclo[7.7.6]docos-15-en-20-yl)-propionic acid tert-butyl ester", "values": [
      {"measurement": "ring closure, isolated yield", "setting": "disulfide bond, 15-membered ring, I2, CH2Cl2/MeOH 9:1, 0.39 mM", "result": "32% and 26%"}
    ]},
    {"molecule": "CC(C)(C)OC(=O)CC[C@H]1NC(=O)C[C@@H](/C=C/CCSC(c2ccccc2)(c2ccccc2)c2ccccc2)OC(=O)CC(O)C2(CC2)NC(=O)[C@@H](CSC(c2ccccc2)(c2ccccc2)c2ccccc2)NC1=O", "note": "(stereo partly drawn)", "values": [
      {"measurement": "ring closure, isolated yield", "setting": "from (R)-4-{(S)-1-[1-(2-Carboxy-1-hydroxy-ethyl)-cyclopropylcarbamoyl]-2-tritylsulfanyl-ethylcarbamoyl}-4-((E)-(S)-3-hydroxy-7-tritylsulfanyl-hept-4-enoylamino)-butyric acid tert-butyl ester, ester bond, 15-membered ring, MNBA/DMAP, CH2Cl2, 1.07 mM", "result": 56, "unit": "%"}
    ]},
    {"molecule": "(E)-(1S,10S,21R)-7-cyclopropyl-21-pyridin-4-ylmethyl-2-oxa-12,13-dithia-5,8,20,23-tetraaza-bicyclo[8.7.6]tricos-16-ene-3,6,9,19,22-pentaone", "values": [
      {"measurement": "ring closure, isolated yield", "setting": "[1]", "result": 2, "unit": "%"}
    ]},
    {"molecule": "3-((E)-(1S,10S,21R)-7-cyclobutyl-3,6,9,19,22-pentaoxo-2-oxa-12,13-dithia-5,8,20,23-tetraaza-bicyclo[8.7.6]tricos-16-en-21-yl)-propionic acid tert-butyl ester", "values": [
      {"measurement": "ring closure, isolated yield", "setting": "disulfide bond, 15-membered ring, I2, CH2Cl2/MeOH 9:1, 0.46 mM", "result": 93, "unit": "%"}
    ]},
    {"molecule": "CC(C)(C)OC(=O)CC[C@H]1NC(=O)C[C@@H](/C=C/CCSC(c2ccccc2)(c2ccccc2)c2ccccc2)OC(=O)CNC(=O)C(C)(C)NC(=O)[C@@H](CSC(c2ccccc2)(c2ccccc2)c2ccccc2)NC1=O", "values": [
      {"measurement": "ring closure, isolated yield", "setting": "from (E)-(S)-3-hydroxy-7-tritylsulfanyl-hept-4-enoyl-dGlu(OtBu)-dCys(Trt)-Aib-Gly-OH, ester bond, 16-membered ring, MNBA/DMAP, CH2Cl2/THF, 0.94 mM, 2 steps", "result": 63, "unit": "%"}
    ]},
    {"molecule": "O=C1C[C@@H](/C=C/CCSC(c2ccccc2)(c2ccccc2)c2ccccc2)OC(=O)CNC(=O)C2(CC2)NC(=O)[C@@H](CSC(c2ccccc2)(c2ccccc2)c2ccccc2)NC(=O)[C@@H](Cc2cccnc2)N1", "values": [
      {"measurement": "ring closure, isolated yield", "setting": "from (3S,4E)-3-hydroxy-7-(tritylthio)hept-4-enoyl-d3Pal-dCys(Trt)-Acc(1-aminocyclopropanecarbonyl)-Gly-OH?, ester bond, 16-membered ring, MNBA/DMAP, CH2Cl2/THF, 0.67 mM, 2 steps", "result": 96, "unit": "%"}
    ]},
    {"molecule": "(E)-(1S,10S,21R)-21-Benzyl-7,7-cyclopropyl-2-oxa-12,13-dithia-5,8,20,23-tetraaza-bicyclo[8.7.6]tricos-16-ene-3,6,9,19,22-pentaone", "values": [
      {"measurement": "ring closure, isolated yield", "setting": "[1]", "result": 81, "unit": "%"}
    ]},
    {"molecule": "3-((E)-(1S,10S,21R)-7,7-Dimethyl-3,6,9,19,22-pentaoxo-2-oxa-12,13-dithia-5,8,20,23-tetraaza-bicyclo[8.7.6]tricos-16-en-21-yl)-propionic acid tert-butyl ester", "values": [
      {"measurement": "ring closure, isolated yield", "setting": "disulfide bond, 15-membered ring, I2, CH2Cl2/MeOH 9:1, 0.35 mM, 25.0 °C", "result": 81, "unit": "%"}
    ]}
  ]
}
